Laboratory results as given in patent US11155616B2, “Drug regulated transgene expression” (Seattle Children's Hospital, priority 2014, dated 2021).

Legend:
[1] = system: TamR-tf (HEA3); assay: 4OHT dose response of ZsGreen expression in transduced Jurkat cells; assay type: cell-based, human; conditions: 4OHT 0 nM-1000 nM, flow cytometry (FIG. 2)
Text: (§1) Jurkat cells were transduced at a MOI of 5 with lentivirus packaging constructs described above in which a dual packaging approach in which each plasmid is co-transfected into 293T cells during lentiviral production. This construct utilized molar ratio of 1:2 of construct A to construct B. Construct A encodes the chimeric transcription factor HEA3 linked via a ribosomal cleavage sequence, T2A, to the tracking and selection marker EGFRt. Construct B encodes the synthetic, HEA3-responsive promoter, 7xHBD/mE1b which regulates expression of the transgene ZsGreen-DR1, a short half-life green fluorescent reporter gene.
Cells were harvested and were then subjected to treatment with 4OHT with concentrations ranging from 0 nM-1000 nM, as indicated. Samples were harvested, washed, and stained with EGFRt-biotin, followed by strepavidin-APC, and then analyzed by flow cytometry for ZsGreen expression.

[2] = system: TamR-tf (HEA3); assay: On and off rate kinetics of ZsGreen expression in transduced Jurkat cells (4OHT washout and re-stimulation); assay type: cell-based, human
Text: as §1
The population was subjected to 500 nM 4OHT stimulation for 48 hours, and then sorted for ZsGreen+cells utilizing FACS, yielding a >99% ZsGreen+population on immediate post-sort analysis. Cells were subsequently expanded in culture for 3 weeks, and then prepared for kinetic studies. Cells were divided into 3 treatment groups: (1) no 4OHT (2) 200 nM 4OHT (added every 48 hours) (3) 24 hour 200 nM 4OHT, followed by washout 1× in PBS, then culture in 4OHT free media for 14 days, followed by a 24 hour re-stimulation with 200 nm 4OHT, and then washout in 1×PBS. At each time point, samples were harvested and analyzed via flow cytometry for ZsGreen expression. Results are shown in FIG. 3 and are presented as % ZsGreen+.

[3] = system: TamR-tf (HEA3); assay: ZsGreen expression by flow cytometry in Jurkat cells transduced with dual packaged TamR ZsGreen lentivirus (constructs A and B); assay type: cell-based, human; conditions: 500 nM 4OHT for 24 hours, flow cytometry (FIG. 1)
Text: An alternative of the TamR-LV system allows for constitutive HEA3 expression and inducible expression of either ZsGreen or chimeric antigen receptors, permitting kinetic analysis and biological effect controlled in an “ON” and “OFF” manner by the presence or absence of tamoxifen. For this, two constructs were used: 1) HEA-3 is driven by the human EF1 a promoter and linked to the constructed truncated EGFR (EGFRt) transmembrane marker protein by a T2A skip-linker sequence and cloned into a third generation epHIV7 self-inactivating lentivirus packaging plasmid (construct A). (See FIGS. 9A, 9B and 9C; SEQ ID NO: 39; Table 1: SEQ ID NO: 8 and SEQ ID NO: 9) and 2) 7xHBD/[…] controls tamoxifen-dependent expression of ZsGreen cloned into pcDNA3.1(−) which was engineered to lack the commercially used CMV promoter (construct B) (See Table 12; SEQ ID NO: 41). ZsGreen1 is a human codon-optimized ZsGreen variant that encodes the brightest commercially available green fluorescent protein. (Available from Clontech).
Jurkat cells were transduced at a MOI of 5 with lentivirus packaging constructs described above in which a dual packaging approach in which each plasmid is co-transfected into 293T cells during lentiviral production. […]

[4] = system: TamR-tf (HEA3); assay: Inducible Her2t expression in human CD4 central memory T cells transduced with TamR CD19CAR LV (with DHFRdm); assay type: cell-based; conditions: 500 nM 4OHT for 24 hours plus antiCD3/antiCD28 beads (FIG. 8)
Procedure: CD4 central memory cells were obtained from peripheral blood by selecting cells through flow cytometry for markers CD4, and CD62L and negative for CD45RO. Cells were cultured anti-CD3/anti-CD28 beads for 3 days. After 3 days, CD4 Central memory cells were transduced at a MOI of 5 with a lentivirus which packages constructs A and B. (FIG. 8B). Construct A encodes the chimeric transcription factor HEA3 linked via a ribosomal cleavage sequence, T2A, to the tracking and selection marker EGFRt. (See FIGS. 9A, 9B and 9C; SEQ ID NO: 39; Table 1; SEQ ID NO: 8 and SEQ ID NO: 9). […] (See Table 12; SEQ ID NO: 41; Table 2 SEQ ID NO: 10; FIG. 11; SEQ ID NO: 44; FIG. 12; SEQ ID NO: 46).
On day 21 after transduction, cells were enriched for EGFRt utilizing magnetic bead selection, and subsequently expanded with irradiated feeder cells, IL2, and IL15. Two weeks after expansion, cells were cryopreserved. In the experiment depicted above, CD4+ CEM cells which were mock transduced, or CD4+TamR CD19CAR LV were thawed, placed in culture with CD3/CD28 beads, IL-2, IL-15. CD4+TamRCD19CAR LV were treated or not with 500 nM 4OHT for 24 hours. All samples were harvested washed, then stained with an EGFRt-APC antibody and Her2t-biotin, followed by SA-PE, and analyzed via flow cytometry.

[5] = system: TamR-tf (HEA3); assay: Inducible CD19CAR/Her2t expression in Jurkat cells transduced with TamR-CD19CAR LV (flow cytometry and western blot); assay type: cell-based, human; conditions: construct not including DHFRdm, 500 nM 4OHT (FIG. 6)
Text: Construction of the vector was accomplished by dual packaging of transfer plasmids housing constructs as described above at a plasmid molar ratio of 1:1. (See FIGS. 6C and 7C) Construct A under the constitutive EF-lalpha promoter encodes TamR-tf (HEA3) linked via a ribosomal cleavage sequence, T2A, to the tracking and selection marker EGFRt. (See FIGS. 9A, 9B and 9C; SEQ ID NO: 39, Table 1: SEQ ID NO: 8 and SEQ ID NO: 9) Construct B contains the 7xHBD/mE1b promoter with downstream transgene cDNA including CD19CAR linked via 2a cleavage sequence to Her2t, a tracking and selection marker. (See Table 12; SEQ ID NO: 41; Table 2 SEQ ID NO: 10; FIG. 11; SEQ ID NO: 44). Another construct was prepared adding an additional selective marker DHFRdm (See FIG. 12; SEQ ID NO: 46).
Human Jurkat cells were transduced at a MOI of 2, then were expanded in culture, and selected for EGFRt+ cells via magnetic bead selection. After further expansion, cells were either treated with vehicle alone (EtOH) or 500 nM 4OHT, and harvested for flow cytometry. Samples were stained with EGFRt-APC antibody and Herceptin-biotin, followed by SA PE. Samples were also prepared for western blot, the primary antibody used is an anti-CD247 mouse mAb which recognizes the intracellular CD3 zeta chain on the CD19CAR (˜48 kDa). The endogenous CD3 zeta migrates at ˜23 kDa.

[6] = system: TamR-tf (HEA3); assay: ZsGreen expression in primary CD8 central memory cells transduced with constructs A and B; assay type: cell-based, human; conditions: inducer plus antiCD3/anti-CD28 beads (FIG. 5B)
Procedure: CD8 central memory cells were obtained from peripheral blood by selecting cells through flow cytometry for markers CD8, and CD62L and negative for CD45RO. Cells were cultured with anti-CD3/anti-CD28 beads for 3 days.
as §1, with “After 3 days, CD4 or CD8 central memory” for “Jurkat”
(§2) On day 21 after transduction, cells were enriched for EGFRt, and subsequently expanded with feeder cells, IL2, and IL15. Following expansion, cells were divided into 3 treatment groups, 4OHT alone (A), 4OHT combined with CD3/CD28 bead cotreatment (B) or 4OHT alone for 48 hours, followed by addition of CD3/CD28 beads (C). […] All samples were harvested at indicated time points following 4OHT treatment, stained with EGFRt-biotin antibody, followed by SA-APC, and analyzed for flow cytometry. […]

[7] = system: TamR-tf (HEA3); assay: ZsGreen expression in primary CD4 central memory cells transduced with constructs A and B; assay type: cell-based, human; conditions: inducer plus antiCD3/anti-CD28 beads (FIG. 4B)
Procedure: CD4 central memory cells were obtained from peripheral blood by selecting cells through flow cytometry for markers CD4, and CD62L and negative for CD45RO. Cells were cultured with anti-CD3/anti-CD28 beads for 3 days.
as §1, with “After 3 days, CD4 or CD8 central memory” for “Jurkat”
as §2

[8] = system: TamR-tf (HEA3); assay: Inducible CD19CAR/Her2t expression in Jurkat cells transduced with TamR CD19CAR LV containing DHFRdm (flow cytometry and western blot); assay type: cell-based, human; conditions: construct including DHFRdm, 500 nM 4OHT (FIG. 7)
Procedure: Construction of TamR CD19CAR LV was done through dual packaging of constructs A and B. Construct A contains HEA3 linked via a ribosomal cleavage sequence, T2A, to the tracking and selection marker EGFRt.
Cells were transduced with TamR CD19CAR LV at a MOI of 1, expanded in culture, selected for EGFRt via magnetic bead selection. Following further expansion cells were treated with […] alone (EtOH) or 500 nM 4OHT, and harvested for flow cytometry, (upper panel). FIG. 7. Samples were stained with EGFRt-APC antibody and Herceptin-biotin, followed by SA-PE. Parental (untransduced Jurkat) is shown for comparison. Samples were also prepared for western blot, the primary antibody used is an anti-CD247 mouse mAb which recognizes the intracellular CD3 zeta chain on the CD19CAR (˜48 kDa). The endogenous CD3 zeta migrates at ˜23 kDa.

Row | Structure (SMILES) | concentration effective to induce expression of the transgene (ZsGreen) [1] [nM] | ZsGreen expression after 4-OHT washout, % of the max ZsGreen activity ([2]; 200 nM 4OHT then washout, within 5 days (FIG. 3)) | ZsGreen activity after 4-OHT is added back, % max activity ([2]; re-stimulation with 200 nM 4OHT, within 2 days (FIG. 3)) | cells expressing ZsGreen [3] | primary cells expressing both EGFRt and Her2t [4] | cells expressing both EGFRt and Her2t [5] | primary transduced CD8 cells expressing ZsGreen [6] | primary transduced CD4 cells expressing ZsGreen [7] | cells expressing both EGFRt and Her2t [8]
1 | CC/C(=C(\c1ccc(O)cc1)c1ccc(OCCN(C)C)cc1)c1ccccc1 [4-OHT, 4-hydroxytamoxifen] | ≥ 200 | less than 10% | about 100% | about 50% |  |  |  |  | 
2 | CC/C(=C(\c1ccccc1)c1ccc(OCCN(C)C)cc1)c1ccccc1 [tamoxifen, 2-(4-((1Z)-1,2-diphenyl-1-butenyl)phenoxy)-N,N-dimethyl-ethanamine] |  |  |  |  | about 14.7% | about 42.6% | About 37% | About 70% | about 7.5%
